We go through one compound from paper PMC12808100, “The non-catalytic DNA polymerase ε subunit is an NPF motif recognition protein” (Nature Communications, 2025).

Residues, ends and D or L forms follow the SMILES beside them.

The target in one experiment is T1, HA-POLE2 (Homo sapiens, UniProt P56282).
T1 construct: POLE2: UniProt ID P56282, residues 1-527; expressed in transfected cells; host or cells: HEK293T
Nature of the experiment: Titration nHU, Western blot, HA-POLE2 in 293T cell extract. It counts as binding. The following applies: HA-tagged POLE2, range over assays, authors' rebuttal; read-out: dissociation constant. An excerpt: (§1) To identify the partners of NPF motifs, we used the native holdup (nHU) assay that was recently developed by our team (Fig. 1B). The holdup approach has been extensively used to determine equilibrium dissociation constants of transient interactions mediated by PDZ and SH3 domains, 14-3-3, and human papilloma virus E6 proteins, and even nucleic acid-protein interactions[7],[30]–[35]. In the nHU experiments, a purified bait molecule, or a control compound, is immobilized on a resin at high concentration (typically 10 μM, or higher) and these resin stocks are subsequently mixed with dilute cell extracts. […] This liquid phase contains the unbound prey molecules at near binding equilibrium that can be quantified using selective and quantitative analytical approaches, such as mass spectrometry. Therefore, proteins that interact with the bait molecule will appear to be depleted in the solvent phase and by measuring its relative concentration compared to the control nHU experiment, the degree of binding (θ) can be determined that can be converted to apparent steady-state dissociation constants, according to:1 θ=1−Ifree/Itot=Cbait/Cbait+Kapp where Itot and Ifree are the measured total and bait-depleted equilibrium mass spectrometry total ion intensities of prey proteins, Cbait is the bait molecule concentration and Kapp is the apparent dissociation constant. […]
For orientation: In western blotting, separated proteins are transferred to a membrane and probed.

The next experiment deals with T2, HA-MBP-POLE2 (Homo sapiens, UniProt P56282).
T2 construct: POLE2: UniProt ID P56282, residues 1-527; expressed in transfected cells; host or cells: HEK293T
T2 sequence (P56282 whole entry, the tested form may be a part): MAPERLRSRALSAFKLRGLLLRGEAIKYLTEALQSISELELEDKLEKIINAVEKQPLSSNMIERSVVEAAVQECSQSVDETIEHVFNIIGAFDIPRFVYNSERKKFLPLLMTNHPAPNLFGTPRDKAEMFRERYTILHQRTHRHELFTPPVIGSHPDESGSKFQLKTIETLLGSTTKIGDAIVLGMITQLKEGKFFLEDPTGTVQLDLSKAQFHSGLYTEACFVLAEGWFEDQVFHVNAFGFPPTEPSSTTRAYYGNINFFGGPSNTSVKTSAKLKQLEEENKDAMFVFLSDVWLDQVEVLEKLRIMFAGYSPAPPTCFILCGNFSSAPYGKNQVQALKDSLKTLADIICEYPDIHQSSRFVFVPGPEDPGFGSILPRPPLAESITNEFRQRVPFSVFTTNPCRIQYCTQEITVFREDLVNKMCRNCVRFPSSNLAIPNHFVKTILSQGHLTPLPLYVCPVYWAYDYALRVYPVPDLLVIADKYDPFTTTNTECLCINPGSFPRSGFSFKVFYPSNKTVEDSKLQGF
Nature of the experiment: Titration nHU, Western blot, HA-MBP-POLE2 in 293T cell extract. It counts as binding. The settings on record: MBP-tagged POLE2, depending on the experimental setup, authors' rebuttal; read-out: dissociation constants.
Source text: as §1

For another experiment, the target named is T3, EPS15 (Homo sapiens, UniProt P42566).
T3 construct: endogenous in cells; host or cells: Jurkat E6.1
T3 sequence (P42566 1-896): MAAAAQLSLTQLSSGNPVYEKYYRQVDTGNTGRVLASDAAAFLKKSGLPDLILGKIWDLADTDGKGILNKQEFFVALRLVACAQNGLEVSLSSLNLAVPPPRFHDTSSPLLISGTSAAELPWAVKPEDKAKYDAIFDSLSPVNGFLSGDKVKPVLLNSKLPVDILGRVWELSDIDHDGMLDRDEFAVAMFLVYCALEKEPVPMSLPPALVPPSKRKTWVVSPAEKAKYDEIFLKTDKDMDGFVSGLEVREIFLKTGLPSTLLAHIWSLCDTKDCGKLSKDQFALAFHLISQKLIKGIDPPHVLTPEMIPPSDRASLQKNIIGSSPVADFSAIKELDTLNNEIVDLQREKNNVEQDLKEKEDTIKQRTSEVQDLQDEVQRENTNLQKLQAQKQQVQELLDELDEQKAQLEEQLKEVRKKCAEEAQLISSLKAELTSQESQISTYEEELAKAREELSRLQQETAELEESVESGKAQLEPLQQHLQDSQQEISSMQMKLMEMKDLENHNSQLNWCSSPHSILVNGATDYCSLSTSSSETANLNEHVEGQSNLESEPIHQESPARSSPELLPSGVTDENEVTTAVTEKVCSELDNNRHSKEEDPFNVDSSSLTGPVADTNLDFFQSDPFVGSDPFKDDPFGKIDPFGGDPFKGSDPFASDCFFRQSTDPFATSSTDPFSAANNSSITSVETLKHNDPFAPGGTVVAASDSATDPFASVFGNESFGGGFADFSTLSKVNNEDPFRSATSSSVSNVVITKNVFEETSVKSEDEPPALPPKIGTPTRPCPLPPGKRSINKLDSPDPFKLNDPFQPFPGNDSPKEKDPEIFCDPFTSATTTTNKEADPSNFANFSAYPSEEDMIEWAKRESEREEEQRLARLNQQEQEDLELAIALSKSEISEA
Nature of the experiment: Titration nHU, Western blot, endogenous EPS15 in Jurkat extract. It counts as binding. The following applies: source data of Fig 5, titration nHU, unit inferred. An excerpt: To identify the partners of NPF motifs, we used the native holdup (nHU) assay that was recently developed by our team (Fig. 1B). The holdup approach has been extensively used to determine equilibrium dissociation constants of transient interactions mediated by PDZ and SH3 domains, 14-3-3, and human papilloma virus E6 proteins, and even nucleic acid-protein interactions[7],[30]–[35]. In the nHU experiments, a purified bait molecule, or a control compound, is immobilized on a resin at high concentration (typically 10 μM, or higher) and these resin stocks are subsequently mixed with dilute cell extracts. After a relatively long incubation, i.e., 2 h at 4 °C, the liquid phase is separated by centrifugation. This liquid phase contains the unbound prey molecules at near binding equilibrium that can be quantified using selective and quantitative analytical approaches, such as mass spectrometry. Therefore, proteins that interact with the bait molecule will appear to be depleted in the solvent phase and by measuring its relative concentration compared to the control nHU experiment, the degree of binding (θ) can be determined that can be converted to apparent steady-state dissociation constants, according to:1 θ=1−Ifree/Itot=Cbait/Cbait+Kapp where Itot and Ifree are the measured total and bait-depleted equilibrium mass spectrometry total ion intensities of prey proteins, Cbait is the bait molecule concentration and Kapp is the apparent dissociation constant.
Jurkat E6.1 cells (ECACC #88042803, RRID: CVCL_0367) were grown in RPMI (Gibco) medium completed with 10% FBS (Gibco BRL) and 40 μg/ml gentamicin (Gibco/Life Technology). To prepare total cell extracts, Jurkat cells were seeded onto T-175 flasks and grew until 3 × 10^6 cells/ml confluency. Cells were collected by 1000 g x 5 min centrifugation, washed with PBS and then lysed in ice-cold lysis buffer (Hepes-KOH pH 7.5 50 mM, NaCl 150 mM, Triton X-100 1%, cOmplete EDTA-free protease inhibitor cocktail 5x, TCEP 5 mM, glycerol 10%).
Cell suspensions were sonicated 4×20 sec with 1 sec long pulse on ice, then incubated rotating at 4 °C for 30 min. The lysates were centrifuged at 12,000 rpm 4 °C for 20 min and supernatant was kept. Total protein concentration was measured by standard Bradford method (Bio-Rad Protein Assay Dye Reagent #5000006) using a BSA calibration curve (MP Biomedicals #160069, diluted in lysis buffer) on a Bio-Rad SmartSpec 3000 spectrophotometer instrument.
Titration holdup experiments were carried out as described above using 25 μl saturated resins prepared. Briefly, we mixed control, or bait-saturated resins at various proportions by keeping the total resin amount and resin-analyte ratio constant during the experiment (for 25 μl we used 100 μl cell extract as analyte). In titration experiments with protein baits, bait concentration was determined as described above for the saturated resin stocks. Experiments were carried out at 4 °C for 2 h and recovered supernatants were subjected to western blot or dot blot analysis.
For Western blot, samples were mixed with 4x Laemmli Sample Buffer in 3:1 ratio. Equal amounts of samples were loaded on 6-10% acrylamide-gels (generally 16 μg). Transfer was done into PVDF membranes using a Trans-Blot Turbo Transfer System and Trans-Blot Turbo RTA Transfer Kit (BioRad, #1704275). For Dot blot, nHU samples were directly loaded on Nitrocellulose membranes using 48 Sample vacuum manifold (Cleaver Scientific) following the manufacturer’s recommendations. […]

The next experiment deals with RFT1 (Homo sapiens, UniProt Q96AA3). Nature of the experiment: nHU-MS peptide bait, prey RFT1.
Chain of RFT1 (Q96AA3 whole entry): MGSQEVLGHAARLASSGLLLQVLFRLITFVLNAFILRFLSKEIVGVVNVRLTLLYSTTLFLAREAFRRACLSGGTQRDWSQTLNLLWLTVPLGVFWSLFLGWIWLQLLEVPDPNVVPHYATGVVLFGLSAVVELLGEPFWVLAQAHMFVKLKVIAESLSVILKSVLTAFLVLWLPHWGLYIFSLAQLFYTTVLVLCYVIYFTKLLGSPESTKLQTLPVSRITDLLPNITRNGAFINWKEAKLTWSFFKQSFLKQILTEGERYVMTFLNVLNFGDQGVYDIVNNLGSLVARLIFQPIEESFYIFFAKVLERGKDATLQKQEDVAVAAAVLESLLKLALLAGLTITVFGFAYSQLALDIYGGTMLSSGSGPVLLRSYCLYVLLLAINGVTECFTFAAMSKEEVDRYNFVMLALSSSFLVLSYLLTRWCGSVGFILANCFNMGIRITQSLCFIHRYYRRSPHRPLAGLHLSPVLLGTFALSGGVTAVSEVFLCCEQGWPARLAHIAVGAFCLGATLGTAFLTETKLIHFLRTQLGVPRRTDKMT
In the next experiment the target is DDX18 (Homo sapiens, UniProt Q9NVP1). Nature of the experiment: nHU-MS peptide bait, prey DDX18.
Chain of DDX18 (Q9NVP1 whole entry): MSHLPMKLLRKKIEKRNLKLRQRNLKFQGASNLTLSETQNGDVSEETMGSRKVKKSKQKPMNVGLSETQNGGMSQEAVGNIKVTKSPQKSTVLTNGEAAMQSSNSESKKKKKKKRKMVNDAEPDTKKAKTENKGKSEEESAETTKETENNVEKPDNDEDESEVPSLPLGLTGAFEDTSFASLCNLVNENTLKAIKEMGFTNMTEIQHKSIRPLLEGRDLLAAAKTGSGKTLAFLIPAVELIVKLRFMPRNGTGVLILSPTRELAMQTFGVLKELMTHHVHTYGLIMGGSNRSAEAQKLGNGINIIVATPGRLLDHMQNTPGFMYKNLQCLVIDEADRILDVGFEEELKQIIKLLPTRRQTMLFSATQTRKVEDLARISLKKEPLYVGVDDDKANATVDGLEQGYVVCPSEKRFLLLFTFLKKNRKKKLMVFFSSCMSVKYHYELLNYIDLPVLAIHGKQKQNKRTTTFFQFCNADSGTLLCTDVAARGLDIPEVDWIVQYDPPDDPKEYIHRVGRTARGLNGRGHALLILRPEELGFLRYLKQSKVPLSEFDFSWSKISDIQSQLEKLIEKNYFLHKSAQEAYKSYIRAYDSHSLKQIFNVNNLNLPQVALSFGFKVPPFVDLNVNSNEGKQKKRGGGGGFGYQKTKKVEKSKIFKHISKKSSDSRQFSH
Another experiment deals with CD2AP (Homo sapiens, UniProt Q9Y5K6). Nature of the experiment: nHU-MS peptide bait, prey CD2AP.
Chain of CD2AP (Q9Y5K6 whole entry): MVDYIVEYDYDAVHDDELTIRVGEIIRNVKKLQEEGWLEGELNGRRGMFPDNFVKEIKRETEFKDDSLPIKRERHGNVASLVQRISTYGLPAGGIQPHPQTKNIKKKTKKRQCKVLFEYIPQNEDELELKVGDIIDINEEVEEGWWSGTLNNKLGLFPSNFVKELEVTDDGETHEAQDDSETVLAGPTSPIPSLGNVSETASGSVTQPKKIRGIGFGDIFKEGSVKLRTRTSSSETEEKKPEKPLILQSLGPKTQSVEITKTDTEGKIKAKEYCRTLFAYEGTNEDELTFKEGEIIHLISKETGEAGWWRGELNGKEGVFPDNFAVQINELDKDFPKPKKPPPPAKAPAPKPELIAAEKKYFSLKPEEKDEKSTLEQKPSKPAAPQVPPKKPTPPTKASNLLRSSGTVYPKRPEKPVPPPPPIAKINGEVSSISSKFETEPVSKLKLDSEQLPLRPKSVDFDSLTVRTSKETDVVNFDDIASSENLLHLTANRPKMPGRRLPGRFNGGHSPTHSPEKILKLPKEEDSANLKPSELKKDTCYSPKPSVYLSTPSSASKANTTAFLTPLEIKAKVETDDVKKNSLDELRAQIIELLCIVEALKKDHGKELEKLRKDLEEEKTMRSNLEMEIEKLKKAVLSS
In another experiment the target is HP1BP3 (Homo sapiens, UniProt Q5SSJ5). Nature of the experiment: nHU-MS peptide bait, prey HP1BP3.
Chain of HP1BP3 (Q5SSJ5 whole entry): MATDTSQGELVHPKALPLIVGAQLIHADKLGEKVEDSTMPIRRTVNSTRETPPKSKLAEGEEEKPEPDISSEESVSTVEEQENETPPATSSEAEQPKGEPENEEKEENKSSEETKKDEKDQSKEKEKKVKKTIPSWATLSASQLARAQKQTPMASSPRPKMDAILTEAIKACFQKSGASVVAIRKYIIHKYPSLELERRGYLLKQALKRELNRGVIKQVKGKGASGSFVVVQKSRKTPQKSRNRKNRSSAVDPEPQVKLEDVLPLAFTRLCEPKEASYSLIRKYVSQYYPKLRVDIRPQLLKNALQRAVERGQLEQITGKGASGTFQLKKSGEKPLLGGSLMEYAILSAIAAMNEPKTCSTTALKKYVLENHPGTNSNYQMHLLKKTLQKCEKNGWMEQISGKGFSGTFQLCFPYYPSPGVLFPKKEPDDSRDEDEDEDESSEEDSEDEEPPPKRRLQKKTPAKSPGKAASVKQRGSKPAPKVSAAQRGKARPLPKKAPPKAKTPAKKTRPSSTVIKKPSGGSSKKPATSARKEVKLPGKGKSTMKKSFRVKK
For the next experiment, the target named is GTPBP4 (Homo sapiens, UniProt Q9BZE4). Nature of the experiment: nHU-MS peptide bait, prey GTPBP4.

T1 sequence (P56282 whole entry, the tested form may be a part): as the sequence (P56282 whole entry, the tested form may be a part) above

Regarding `CC(C)C[C@H](NC(=O)[C@H](CCCNC(=N)N)NC(=O)[C@H](C)NC(=O)[C@H](Cc1ccccc1)NC(=O)[C@@H]1CCCN1C(=O)[C@H](CC(N)=O)NC(=O)[C@H](CCCNC(=N)N)NC(=O)[C@H](CCCNC(=N)N)NC(=O)[C@H](C)NC(=O)[C@H](C)NC(=O)[C@H](C)NC(=O)[C@@H]1CCCN1C(=O)CN)C(=O)N[C@@H](CC(=O)O)C(=O)N[C@@H](CC(N)=O)C(=O)N[C@@H](CCCNC(=N)N)C(=O)N1CCC[C@H]1C(=O)N[C@@H](CCCNC(=N)N)C(N)=O` [DONSON_71-88] (H-GPAAARRNPFARLDNRPR-NH2), the Kd on HA-POLE2 was 0.3 to 0.5 µM; at HA-MBP-POLE2, 1 to 10 µM; at EPS15, > 60 µM; at RFT1, 24.2 µM; on DDX18, 29.5 µM; at CD2AP, 18.8 µM. In addition, the Kd was 31.2 µM on HP1BP3 and 29.7 µM on GTPBP4. Moreover, the BI at RFT1 (prey RFT1, MS7_Varjosalo) is recorded as 0.292; on DDX18 (prey DDX18, MS2_Varjosalo) it was 0.2529; on CD2AP (prey CD2AP, MS7_Varjosalo), 0.3476; at HP1BP3 (prey HP1BP3, MS2_Varjosalo), 0.2425; on GTPBP4 (prey GTPBP4, MS2_Varjosalo), 0.252.
